System: Digitaria sanguinalis (DIGSA)
Assay: Post-emergence efficacy, glasshouse
Assay type: in vivo
Conditions: Digitaria sanguinalis, post-emergence, 312 h, Application Rate 500 g/Ha; evaluated after 13 days; 100=total damage to plant, 0=no damage to plant; read-out: Control of weed species after post-emergence application, DIGSA
In short: (§1)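 Plants grown 14 days in glasshouse (24/16° C, 14 h light, 65% humidity), then sprayed post-emergence with active ingredient in IF50 solvent/emulsifier mix, diluted in 0.25% or 1% Empicol ESC70 + 1% ammonium sulphate. Damage scored 13 days later, 0–100 (100 = total damage).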

| SMILES | pest or weed control at 500 g/ha [%] |
| --- | --- |
| C[n+]1cc(CCC(=O)O)c2ccccc2n1 [Compound A56, 3-(2-methylcinnolin-2-ium-4-yl)propanoic acid 2,2,2-trifluoroacetate] | 100 |
| CCOC(=O)Cc1c[n+](C)nc2ccccc12 [Compound A52, ethyl 2-(2-methylcinnolin-2-ium-4-yl)acetate 2,2,2-trifluoroacetate] | 30 |
| CC(C)OP(=O)([O-])c1c[n+](C(C)(C)C)nc2ccccc12 [Compound A74] | 20 |

Same assay, conditions: Digitaria sanguinalis, post-emergence, 312 h; Application Rate 1000 g/Ha; evaluated after 13 days; 100=total damage to plant, 0=no damage to plant; read-out: Control of weed species after post-emergence application, DIGSA

| SMILES | pest or weed control at 1000 g/ha [%] |
| --- | --- |
| C[C@@H](NC(=O)c1c[n+](C)nc2ccccc12)C(=O)O [Compound A9, (2R)-2-[(2-methylcinnolin-2-ium-4-carbonyl)amino]propanoic acid 2,2,2-trifluoroacetate] | 40 |
| C[n+]1cc(C(=O)[N-]S(=O)(=O)c2ccc(Cl)s2)c2ccccc2n1 [Compound A39] | 10 |
| CC[n+]1cc(P(=O)([O-])O)c2ccccc2n1 [Compound A66] | 90 |

System: Ipomoea hederacea (IPOHE)
Assay: Post-emergence efficacy, glasshouse
Assay type: in vivo
Conditions: Ipomoea hederacea, post-emergence, 312 h, Application Rate 500 g/Ha; evaluated after 13 days; 100=total damage to plant, 0=no damage to plant; read-out: Control of weed species after post-emergence application, IPOHE
In short: as §1

| SMILES | pest or weed control at 500 g/ha [%] |
| --- | --- |
| C[n+]1cc(CCC(=O)O)c2ccccc2n1 [Compound A56, 3-(2-methylcinnolin-2-ium-4-yl)propanoic acid 2,2,2-trifluoroacetate] | 30 |
| CCOC(=O)Cc1c[n+](C)nc2ccccc12 [Compound A52, ethyl 2-(2-methylcinnolin-2-ium-4-yl)acetate 2,2,2-trifluoroacetate] | 20 |
| CC(C)OP(=O)([O-])c1c[n+](C(C)(C)C)nc2ccccc12 [Compound A74] | 50 |

Same assay, conditions: Ipomoea hederacea, post-emergence, 312 h; Application Rate 1000 g/Ha; evaluated after 13 days; 100=total damage to plant, 0=no damage to plant; read-out: Control of weed species after post-emergence application, IPOHE

| SMILES | pest or weed control at 1000 g/ha [%] |
| --- | --- |
| C[C@@H](NC(=O)c1c[n+](C)nc2ccccc12)C(=O)O [Compound A9, (2R)-2-[(2-methylcinnolin-2-ium-4-carbonyl)amino]propanoic acid 2,2,2-trifluoroacetate] | 50 |
| C[n+]1cc(C(=O)[N-]S(=O)(=O)c2ccc(Cl)s2)c2ccccc2n1 [Compound A39] | 30 |
| CC[n+]1cc(P(=O)([O-])O)c2ccccc2n1 [Compound A66] | 60 |

System: Lolium perenne (LOLPE)
Assay: Post-emergence efficacy, glasshouse
Assay type: in vivo
Conditions: Lolium perenne, post-emergence, 312 h, Application Rate 500 g/Ha; evaluated after 13 days; 100=total damage to plant, 0=no damage to plant; read-out: Control of weed species after post-emergence application, LOLPE
In short: as §1

| SMILES | pest or weed control at 500 g/ha [%] |
| --- | --- |
| C[n+]1cc(CCC(=O)O)c2ccccc2n1 [Compound A56, 3-(2-methylcinnolin-2-ium-4-yl)propanoic acid 2,2,2-trifluoroacetate] | 10 |
| CCOC(=O)Cc1c[n+](C)nc2ccccc12 [Compound A52, ethyl 2-(2-methylcinnolin-2-ium-4-yl)acetate 2,2,2-trifluoroacetate] | 10 |
| CC(C)OP(=O)([O-])c1c[n+](C(C)(C)C)nc2ccccc12 [Compound A74] | 30 |

Same assay, conditions: Lolium perenne, post-emergence, 312 h; Application Rate 1000 g/Ha; evaluated after 13 days; 100=total damage to plant, 0=no damage to plant; read-out: Control of weed species after post-emergence application, LOLPE

| SMILES | pest or weed control at 1000 g/ha [%] |
| --- | --- |
| C[C@@H](NC(=O)c1c[n+](C)nc2ccccc12)C(=O)O [Compound A9, (2R)-2-[(2-methylcinnolin-2-ium-4-carbonyl)amino]propanoic acid 2,2,2-trifluoroacetate] | 10 |
| C[n+]1cc(C(=O)[N-]S(=O)(=O)c2ccc(Cl)s2)c2ccccc2n1 [Compound A39] | 0 |
| CC[n+]1cc(P(=O)([O-])O)c2ccccc2n1 [Compound A66] | 10 |

System: Euphorbia heterophylla (EPHHL)
Assay: Post-emergence efficacy, glasshouse
Assay type: in vivo
Conditions: Euphorbia heterophylla, post-emergence, 312 h, Application Rate 500 g/Ha; evaluated after 13 days; 100=total damage to plant, 0=no damage to plant; read-out: Control of weed species after post-emergence application, EPHHL
In short: as §1

| SMILES | pest or weed control at 500 g/ha [%] |
| --- | --- |
| C[n+]1cc(CCC(=O)O)c2ccccc2n1 [Compound A56, 3-(2-methylcinnolin-2-ium-4-yl)propanoic acid 2,2,2-trifluoroacetate] | 40 |
| CCOC(=O)Cc1c[n+](C)nc2ccccc12 [Compound A52, ethyl 2-(2-methylcinnolin-2-ium-4-yl)acetate 2,2,2-trifluoroacetate] | 40 |
| CC(C)OP(=O)([O-])c1c[n+](C(C)(C)C)nc2ccccc12 [Compound A74] | 50 |

Same assay, conditions: Euphorbia heterophylla, post-emergence, 312 h; Application Rate 1000 g/Ha; evaluated after 13 days; 100=total damage to plant, 0=no damage to plant; read-out: Control of weed species after post-emergence application, EPHHL

| SMILES | pest or weed control at 1000 g/ha [%] |
| --- | --- |
| C[C@@H](NC(=O)c1c[n+](C)nc2ccccc12)C(=O)O [Compound A9, (2R)-2-[(2-methylcinnolin-2-ium-4-carbonyl)amino]propanoic acid 2,2,2-trifluoroacetate] | 50 |
| C[n+]1cc(C(=O)[N-]S(=O)(=O)c2ccc(Cl)s2)c2ccccc2n1 [Compound A39] | 20 |
| CC[n+]1cc(P(=O)([O-])O)c2ccccc2n1 [Compound A66] | 80 |

System: Eleusine indica (ELEIN)
Assay: Post-emergence efficacy, glasshouse
Assay type: in vivo
Conditions: Eleusine indica, post-emergence, 312 h, Application Rate 500 g/Ha; evaluated after 13 days; 100=total damage to plant, 0=no damage to plant; read-out: Control of weed species after post-emergence application, ELEIN
In short: as §1

| SMILES | pest or weed control at 500 g/ha [%] |
| --- | --- |
| C[n+]1cc(CCC(=O)O)c2ccccc2n1 [Compound A56, 3-(2-methylcinnolin-2-ium-4-yl)propanoic acid 2,2,2-trifluoroacetate] | 70 |
| CCOC(=O)Cc1c[n+](C)nc2ccccc12 [Compound A52, ethyl 2-(2-methylcinnolin-2-ium-4-yl)acetate 2,2,2-trifluoroacetate] | 70 |
| CC(C)OP(=O)([O-])c1c[n+](C(C)(C)C)nc2ccccc12 [Compound A74] | 60 |

Same assay, conditions: Eleusine indica, post-emergence, 312 h; Application Rate 1000 g/Ha; evaluated after 13 days; 100=total damage to plant, 0=no damage to plant; read-out: Control of weed species after post-emergence application, ELEIN

| SMILES | pest or weed control at 1000 g/ha [%] |
| --- | --- |
| C[C@@H](NC(=O)c1c[n+](C)nc2ccccc12)C(=O)O [Compound A9, (2R)-2-[(2-methylcinnolin-2-ium-4-carbonyl)amino]propanoic acid 2,2,2-trifluoroacetate] | 40 |
| C[n+]1cc(C(=O)[N-]S(=O)(=O)c2ccc(Cl)s2)c2ccccc2n1 [Compound A39] | 10 |
| CC[n+]1cc(P(=O)([O-])O)c2ccccc2n1 [Compound A66] | 70 |

System: Setaria faberi (SETFA)
Assay: Post-emergence efficacy, glasshouse
Assay type: in vivo
Conditions: Setaria faberi, post-emergence, 312 h, Application Rate 500 g/Ha; evaluated after 13 days; 100=total damage to plant, 0=no damage to plant; read-out: Control of weed species after post-emergence application, SETFA
In short: as §1

| SMILES | pest or weed control at 500 g/ha [%] |
| --- | --- |
| C[n+]1cc(CCC(=O)O)c2ccccc2n1 [Compound A56, 3-(2-methylcinnolin-2-ium-4-yl)propanoic acid 2,2,2-trifluoroacetate] | 60 |
| CCOC(=O)Cc1c[n+](C)nc2ccccc12 [Compound A52, ethyl 2-(2-methylcinnolin-2-ium-4-yl)acetate 2,2,2-trifluoroacetate] | 10 |
| CC(C)OP(=O)([O-])c1c[n+](C(C)(C)C)nc2ccccc12 [Compound A74] | 20 |

Same assay, conditions: Setaria faberi, post-emergence, 312 h; Application Rate 1000 g/Ha; evaluated after 13 days; 100=total damage to plant, 0=no damage to plant; read-out: Control of weed species after post-emergence application, SETFA

| SMILES | pest or weed control at 1000 g/ha [%] |
| --- | --- |
| C[C@@H](NC(=O)c1c[n+](C)nc2ccccc12)C(=O)O [Compound A9, (2R)-2-[(2-methylcinnolin-2-ium-4-carbonyl)amino]propanoic acid 2,2,2-trifluoroacetate] | 30 |
| C[n+]1cc(C(=O)[N-]S(=O)(=O)c2ccc(Cl)s2)c2ccccc2n1 [Compound A39] | 30 |
| CC[n+]1cc(P(=O)([O-])O)c2ccccc2n1 [Compound A66] | 70 |

System: Echinochloa crus-galli (ECHCG)
Assay: Post-emergence efficacy, glasshouse
Assay type: in vivo
Conditions: Echinochloa crus-galli, post-emergence, 312 h, Application Rate 500 g/Ha; evaluated after 13 days; 100=total damage to plant, 0=no damage to plant; read-out: Control of weed species after post-emergence application, ECHCG
In short: as §1

| SMILES | pest or weed control at 500 g/ha [%] |
| --- | --- |
| C[n+]1cc(CCC(=O)O)c2ccccc2n1 [Compound A56, 3-(2-methylcinnolin-2-ium-4-yl)propanoic acid 2,2,2-trifluoroacetate] | 70 |
| CCOC(=O)Cc1c[n+](C)nc2ccccc12 [Compound A52, ethyl 2-(2-methylcinnolin-2-ium-4-yl)acetate 2,2,2-trifluoroacetate] | 10 |
| CC(C)OP(=O)([O-])c1c[n+](C(C)(C)C)nc2ccccc12 [Compound A74] | 10 |

Same assay, conditions: Echinochloa crus-galli, post-emergence, 312 h; Application Rate 1000 g/Ha; evaluated after 13 days; 100=total damage to plant, 0=no damage to plant; read-out: Control of weed species after post-emergence application, ECHCG

| SMILES | pest or weed control at 1000 g/ha [%] |
| --- | --- |
| C[C@@H](NC(=O)c1c[n+](C)nc2ccccc12)C(=O)O [Compound A9, (2R)-2-[(2-methylcinnolin-2-ium-4-carbonyl)amino]propanoic acid 2,2,2-trifluoroacetate] | 20 |
| C[n+]1cc(C(=O)[N-]S(=O)(=O)c2ccc(Cl)s2)c2ccccc2n1 [Compound A39] | 20 |
| CC[n+]1cc(P(=O)([O-])O)c2ccccc2n1 [Compound A66] | 60 |

System: Amaranthus palmeri (AMAPA)
Assay: Post-emergence efficacy, glasshouse
Assay type: in vivo
Conditions: Amaranthus palmeri, post-emergence, 312 h, Application Rate 500 g/Ha; evaluated after 13 days; 100=total damage to plant, 0=no damage to plant; read-out: Control of weed species after post-emergence application, AMAPA
In short: as §1

| SMILES | pest or weed control at 500 g/ha [%] |
| --- | --- |
| C[n+]1cc(CCC(=O)O)c2ccccc2n1 [Compound A56, 3-(2-methylcinnolin-2-ium-4-yl)propanoic acid 2,2,2-trifluoroacetate] | 100 |
| CCOC(=O)Cc1c[n+](C)nc2ccccc12 [Compound A52, ethyl 2-(2-methylcinnolin-2-ium-4-yl)acetate 2,2,2-trifluoroacetate] | 50 |
| CC(C)OP(=O)([O-])c1c[n+](C(C)(C)C)nc2ccccc12 [Compound A74] | 100 |

Same assay, conditions: Amaranthus palmeri, post-emergence, 312 h; Application Rate 1000 g/Ha; evaluated after 13 days; 100=total damage to plant, 0=no damage to plant; read-out: Control of weed species after post-emergence application, AMAPA

| SMILES | pest or weed control at 1000 g/ha [%] |
| --- | --- |
| C[C@@H](NC(=O)c1c[n+](C)nc2ccccc12)C(=O)O [Compound A9, (2R)-2-[(2-methylcinnolin-2-ium-4-carbonyl)amino]propanoic acid 2,2,2-trifluoroacetate] | 50 |
| C[n+]1cc(C(=O)[N-]S(=O)(=O)c2ccc(Cl)s2)c2ccccc2n1 [Compound A39] | 80 |
| CC[n+]1cc(P(=O)([O-])O)c2ccccc2n1 [Compound A66] | 40 |

System: Chenopodium album (CHEAL)
Assay: Post-emergence efficacy, glasshouse
Assay type: in vivo
Conditions: Chenopodium album, post-emergence, 312 h, Application Rate 500 g/Ha; evaluated after 13 days; 100=total damage to plant, 0=no damage to plant; read-out: Control of weed species after post-emergence application, CHEAL
In short: as §1

| SMILES | pest or weed control at 500 g/ha [%] |
| --- | --- |
| C[n+]1cc(CCC(=O)O)c2ccccc2n1 [Compound A56, 3-(2-methylcinnolin-2-ium-4-yl)propanoic acid 2,2,2-trifluoroacetate] | 90 |
| CCOC(=O)Cc1c[n+](C)nc2ccccc12 [Compound A52, ethyl 2-(2-methylcinnolin-2-ium-4-yl)acetate 2,2,2-trifluoroacetate] | 60 |
| CC(C)OP(=O)([O-])c1c[n+](C(C)(C)C)nc2ccccc12 [Compound A74] | 60 |

Same assay, conditions: Chenopodium album, post-emergence, 312 h; Application Rate 1000 g/Ha; evaluated after 13 days; 100=total damage to plant, 0=no damage to plant; read-out: Control of weed species after post-emergence application, CHEAL

| SMILES | pest or weed control at 1000 g/ha [%] |
| --- | --- |
| C[C@@H](NC(=O)c1c[n+](C)nc2ccccc12)C(=O)O [Compound A9, (2R)-2-[(2-methylcinnolin-2-ium-4-carbonyl)amino]propanoic acid 2,2,2-trifluoroacetate] | 50 |
| C[n+]1cc(C(=O)[N-]S(=O)(=O)c2ccc(Cl)s2)c2ccccc2n1 [Compound A39] | 30 |
| CC[n+]1cc(P(=O)([O-])O)c2ccccc2n1 [Compound A66] | 30 |
